The record followed here is patent publication US20240149033A1, “MICRONEEDLE COMPOSITIONS AND METHODS OF DELIVERY USING THE SAME” (The Brigham and Women`s Hospital, Inc., priority 2021, published 2024).

The series concerns THP-1 cells. Description: Cytotoxicity of TCEP digestion media (LIVE/DEAD stain, flow cytometry). Format: cell-based. The settings on record: TCEP 0.1 mM to 100 mM, 10 minutes. As for the experimental part:
Cell death was analyzed by flow cytometry after staining using the LIVE/DEAD fixable Violet Dead Cell Stain. Multiple comparisons among groups were determined using one-way ANOVA followed by a post-hoc test. P-value: *p<0.05, **p<0.01.
The ability to induce on-demand digestion of the MNs using a reducing agent (Tris (2-carboxyethil) phosphine, TCEP) was also characterized. […] THP-1 cells were incubated with different concentrations of digestion media (TCEP solution in supplemented media), ranging from 0.1 mM to 100 mM, for 10 minutes. Thereafter, digestion media was removed, and cells were stained using the LIVE/DEAD fixable Violet Dead Cell Stain Kit (ThermoFisher Scientific, USA) following the manufacturer's guidelines. Dead cells were analyzed by flow cytometry using a BD LSRFortessa™ flow cytometer.

Regarding `O=C(O)CCP(CCC(=O)O)CCC(=O)O` [TCEP, tris(2-carboxyethyl)phosphine], the cell viability entry is “did not affect cell viability”.
